Measured values: ChEMBL document CHEMBL1128128, “Relationship between structure and bioavailability in a series of hydroxamate based metalloprotease inhibitors” (Bioorg Med Chem Lett, 1995)

Key:
[1] = Plasma half-life in rats; type: ADME, organism-based; details: rat
[2] = Biliary excretion when administered intravenously at a dose of 5 mg/kg in rats; type: ADME, organism-based; design: dose 5 mg/kg, route intravenous; details: rat, bile, iv, read-out: Biliary excretion
Interstitial collagenase = target: T1, Interstitial collagenase (Homo sapiens, UniProt P03956); assay: Evaluated for inhibitory activity against Human fibroblast collagenase (HFC)
T1 sequence (P03956 whole entry): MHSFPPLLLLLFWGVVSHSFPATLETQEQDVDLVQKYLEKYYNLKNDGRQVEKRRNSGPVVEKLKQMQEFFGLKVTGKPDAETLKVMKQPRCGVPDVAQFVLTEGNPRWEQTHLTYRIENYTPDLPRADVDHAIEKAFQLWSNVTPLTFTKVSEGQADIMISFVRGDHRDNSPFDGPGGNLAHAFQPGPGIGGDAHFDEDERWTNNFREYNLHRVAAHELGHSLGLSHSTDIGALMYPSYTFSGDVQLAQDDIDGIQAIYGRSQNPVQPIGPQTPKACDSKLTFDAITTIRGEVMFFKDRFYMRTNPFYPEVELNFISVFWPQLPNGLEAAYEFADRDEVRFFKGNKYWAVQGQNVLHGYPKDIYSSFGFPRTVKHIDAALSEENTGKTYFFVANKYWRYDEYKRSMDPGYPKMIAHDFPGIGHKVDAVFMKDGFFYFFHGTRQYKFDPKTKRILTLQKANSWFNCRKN

[3] = Maximum concentration in portal vein was determined at a concentration of 10 mg/kg in rats; type: ADME, organism-based; design: dose 10 mg/kg; details: rat, portal vein blood
[4] = Plasma half-life was determined; type: ADME, cell-free
Rattus norvegicus = species: Rattus norvegicus; assay: Plasma half-life in rats; <MQL; type: ADME, organism-based; details: in vivo
[5] = Biliary excretion when administered intravenously at a dose of 2.5 mg/kg in rats; type: ADME, organism-based; design: dose 2.5 mg/kg, route intravenous; details: rat, bile, iv, read-out: Biliary excretion
[6] = Maximum concentration in portal vein was determined at a concentration of 20 mg/kg in rats; type: ADME, organism-based; design: dose 20 mg/kg; details: rat, portal vein blood

SMILES | half-life [1] [min] | dose excreted [2] [%] | Ki (Interstitial collagenase) [nM] | Cmax [3] [ng/mL] | half-life [4] [min] | T1/2 (Rattus norvegicus) | dose excreted [5] [%] | Cmax [6] [ng/mL]
CC(C)C[C@H](CC(=O)NO)C(=O)N[C@@H](Cc1c[nH]c2ccccc12)C(=O)NCCSCCN(C)C | 43.7 | 60.8 | 5 | 2800 | – | – | – | –
CSCCNC(=O)[C@H](Cc1c[nH]c2ccccc12)NC(=O)[C@@H](CC(=O)NO)CC(C)C | 32.4 | 27.3 | 5 | – | – | – | – | –
CC(C)C[C@H](CC(=O)NO)C(=O)N[C@@H](Cc1c[nH]c2ccccc12)C(=O)NCCN(C)C | – | 18.9 | 12 | – | 21 | – | – | –
CC(C)C[C@H](CC(=O)NO)C(=O)N[C@@H](Cc1c[nH]c2ccccc12)C(=O)NCCS(N)(=O)=O | 17.6 | 61.3 | 6 | – | – | – | – | –
CC(C)C[C@H](CC(=O)NO)C(=O)N[C@@H](Cc1c[nH]c2ccccc12)C(=O)NCCSCCN1CCOCC1 | 42.5 | 30.8 | 4 | – | – | – | – | –
CC(C)C[C@H](CC(=O)NO)C(=O)N[C@@H](Cc1c[nH]c2ccccc12)C(=O)NCCSc1ccccc1 | 33.3 | 43.9 | 3 | – | – | – | – | –
CC(C)C[C@H](CC(=O)NO)C(=O)N[C@@H](Cc1c[nH]c2ccccc12)C(=O)NCCCN(C)C | 25 | 18.1 | 3 | – | – | – | – | –
CNC(=O)[C@H](Cc1ccc(OC)cc1)NC(=O)[C@@H](CC(=O)NO)CC(C)C | 9 | 84.1 | – | – | – | – | – | –

More lines, in order of falling Ki (Interstitial collagenase), values ahead:

half-life [1] [min] | dose excreted [2] [%] | Ki (Interstitial collagenase) [nM] | Cmax [3] [ng/mL] | half-life [4] [min] | T1/2 (Rattus norvegicus) | dose excreted [5] [%] | Cmax [6] [ng/mL] | SMILES
19 | 59.2 | 5 | – | – | – | – | – | COCCNC(=O)[C@H](Cc1c[nH]c2ccccc12)NC(=O)[C@@H](CC(=O)NO)CC(C)C
– | – | 4 | – | – | <MQL | 80.7 | – | CC(C)C[C@H](CC(=O)NO)C(=O)N[C@@H](Cc1c[nH]c2ccccc12)C(=O)NCc1ccc(CN(C)C)cc1
26.6 | – | 3 | – | – | – | 17.9 | – | CC(C)C[C@H](CC(=O)NO)C(=O)N[C@@H](Cc1c[nH]c2ccccc12)C(=O)NCCCCN(C)C
24 | 67.2 | 3 | – | – | – | – | – | CC(C)C[C@H](CC(=O)NO)C(=O)N[C@@H](Cc1c[nH]c2ccccc12)C(=O)NCCS(C)(=O)=O
37.6 | 46 | 3 | – | – | – | – | 900 | CCSCCNC(=O)[C@H](Cc1c[nH]c2ccccc12)NC(=O)[C@@H](CC(=O)NO)CC(C)C
2.5 | 74.5 | 2 | – | – | – | – | – | COc1ccc(C(=O)CCCCNC(=O)[C@H](Cc2c[nH]c3ccccc23)NC(=O)[C@@H](CC(=O)NO)CC(C)C)cc1
27 | 99.9 | 2 | – | – | – | – | – | CC(C)C[C@H](CC(=O)NO)C(=O)N[C@@H](Cc1c[nH]c2ccccc12)C(=O)NCCCCOCc1ccccc1
7.4 | 44.8 | 2 | – | – | – | – | – | CC(C)C[C@H](CC(=O)NO)C(=O)N[C@@H](Cc1c[nH]c2ccccc12)C(=O)NCC[S+](C)[O-] (stereo not given in full)
37 | 53 | 1 | – | – | – | – | – | CSCCCNC(=O)[C@H](Cc1c[nH]c2ccccc12)NC(=O)[C@@H](CC(=O)NO)CC(C)C
6.9 | 108 | 1 | – | – | – | – | – | CC(C)C[C@H](CC(=O)NO)C(=O)N[C@@H](Cc1c[nH]c2ccccc12)C(=O)NCCCCC(=O)O
